One assay has as its target T1, full-length human Hpk1 (Homo sapiens, UniProt Q92918).
T1 construct: A recombinant fusion protein consisting of full-length human Hpk1; GST (N)
As to the kind of experiment: HPK1 kinase assay (ADP Glo Kinase Assay). The assay is classed as biochemical. The settings on record: full-length human GST-Hpk1, ADP Glo, 75 μM ATP; read-out: Hpk1 biochemical (pIC50) (converted). In outline:
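GST-tagged full-length human Hpk1 from baculovirus/insect cells, preincubated with compound 30-45 min at room temperature in 40 mM Tris pH 7.5, 2 mM DTT, 0.05% BSA, 5 mM MgCl2. Reaction started with buffer containing 75 μM ATP (stock, before addition) and run 120 min. ADP formed read by ADP Glo luminescence.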
On the technique in general: ADP-Glo first removes unused ATP, then detects ADP through luciferase.

The next assay concerns the target Hpk1 (Homo sapiens, UniProt Q92918). In words: SLP76 phosphorylation assay (SLP76 pS376 in lysates of HEK293 cells engineered to express Hpk1 and SLP76). The assay is classed as cell-based. The settings on record: HEK293 cells expressing Hpk1 and SLP76, 4 hours incubation; read-out: pSLP76 (HEK293) (pIC50) (converted). The method, boiled down:
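HEK293 cells expressing Hpk1 and SLP76 were treated with serially diluted compounds for 4 h at 37 °C/5% CO2, then lysed. SLP76 pS376 in lysates was quantified by electrochemiluminescent immunoassay. IC50 was fitted after subtracting signal from cells expressing SLP76 only.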

The results in this text go back to patent publication US12492194B2, “HPK1 inhibitors” (Janssen Pharmaceutica NV, priority 2019, dated 2025).

A value given as a limit tells only on which side of the number the result lay.

Chain of Hpk1 (Q92918 whole entry): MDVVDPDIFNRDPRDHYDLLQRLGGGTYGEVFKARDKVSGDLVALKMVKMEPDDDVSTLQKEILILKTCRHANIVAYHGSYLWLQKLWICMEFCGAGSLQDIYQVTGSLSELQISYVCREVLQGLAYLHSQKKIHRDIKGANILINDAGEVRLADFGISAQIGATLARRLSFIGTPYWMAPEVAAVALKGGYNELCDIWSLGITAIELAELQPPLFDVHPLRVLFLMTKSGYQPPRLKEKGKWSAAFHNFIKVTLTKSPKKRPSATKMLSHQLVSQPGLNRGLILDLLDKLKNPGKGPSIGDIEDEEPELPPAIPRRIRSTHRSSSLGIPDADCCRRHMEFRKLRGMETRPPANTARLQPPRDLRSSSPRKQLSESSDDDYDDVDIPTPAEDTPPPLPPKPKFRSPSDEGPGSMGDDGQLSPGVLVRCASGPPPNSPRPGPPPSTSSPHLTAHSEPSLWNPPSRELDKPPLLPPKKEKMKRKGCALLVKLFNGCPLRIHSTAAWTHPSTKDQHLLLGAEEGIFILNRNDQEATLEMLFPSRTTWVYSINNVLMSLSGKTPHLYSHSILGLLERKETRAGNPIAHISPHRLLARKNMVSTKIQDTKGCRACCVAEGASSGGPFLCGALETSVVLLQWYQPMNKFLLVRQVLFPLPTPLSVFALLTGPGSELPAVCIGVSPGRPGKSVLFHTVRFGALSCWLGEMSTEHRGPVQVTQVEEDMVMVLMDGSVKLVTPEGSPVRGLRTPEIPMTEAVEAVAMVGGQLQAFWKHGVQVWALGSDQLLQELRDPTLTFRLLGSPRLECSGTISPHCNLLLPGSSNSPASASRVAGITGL
T1 sequence (Q92918 whole entry, the tested form may be a part): as the sequence (Q92918 whole entry) above

With `CN(Cc1cc(-c2cnc(N)c(-c3ccncc3)c2)ccc1C1CCOCC1)C1CC1` [Co. 106], the figures for the IC50 on full-length human Hpk1 and at Hpk1 were 0.178 µM and 7.41 µM, respectively.
For `Nc1ncc(-c2ccc(C3CCOCC3)c(CN3CCCC3)c2)cc1-c1ccncc1` [Co. 108] the same measures were 0.117 µM and 7.59 µM.
Consider `CN(C)Cc1cc(-c2cnc(N)c(C(=O)NCCO)c2)ccc1C1CCOCC1` [Co. 110], for which the IC50 was 0.0891 µM at full-length human Hpk1 and 4.68 µM on Hpk1.
For `CC(CO)CNC(=O)c1cc(-c2ccc(C3CCOCC3)c(CN(C)C)c2)cnc1N` (stereo not shown) [Co. 111], in that order: 0.11 µM and 5.89 µM.
Consider `Nc1ncc(-c2ccc(C3CCOCC3)c([C@@H]3CCCN3)c2)cc1-c1ccc(=O)[nH]c1` [Compound 56], for which the IC50 is 0.0355 µM on full-length human Hpk1 and more than 10 µM on Hpk1.
